Ends that are not written are not given here.
Experiments:
IFN-γ [1] = tested on: IFN-γ; design: species or system C57BL/6 mice; conditions: mouse, in vivo
IAV A/PR/8/34 [2] = tested on: IAV A/PR/8/34; design: species or system C57BL/6 mice; conditions: mouse, in vivo
IAV A/PR/8/34 [3] = tested on: IAV A/PR/8/34; design: species or system C57BL/6 mice; conditions: mouse, in vivo; remark: listed apart in the source
IAV A/PR/8/34 [4] = tested on: IAV A/PR/8/34; design: species or system C57BL/6 mice; conditions: mouse, in vivo; remark: listed apart in the source
IFN-γ [5] = format: cell-based, human
IAV A/PR/8/34 (H1N1) = format: cell-based, influenza virus type A
PAR2 = biological target: T1, PAR2 (Homo sapiens, UniProt P55085); test: Flow cytometry of PAR2 expression in A549 cells after PAR2 stimulation; format: cell-based; conditions: 250 μM peptide, 24 hours post-stimulation, permeabilized cells
T1 construct: endogenous in cells; host or cells: A549 (human alveolar type II epithelial cell line, ATCC)
T1 sequence (P55085 26-397): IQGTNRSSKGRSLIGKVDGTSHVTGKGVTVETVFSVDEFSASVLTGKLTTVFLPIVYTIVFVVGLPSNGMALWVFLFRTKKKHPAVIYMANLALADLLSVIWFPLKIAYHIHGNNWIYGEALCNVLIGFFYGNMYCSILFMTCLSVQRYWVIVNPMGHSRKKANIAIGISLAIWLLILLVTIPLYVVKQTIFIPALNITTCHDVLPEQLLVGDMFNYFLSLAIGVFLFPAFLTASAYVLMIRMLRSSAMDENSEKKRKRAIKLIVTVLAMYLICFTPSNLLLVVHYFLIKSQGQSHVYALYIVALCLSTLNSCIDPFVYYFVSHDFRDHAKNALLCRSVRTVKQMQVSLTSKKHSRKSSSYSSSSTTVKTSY
Method: A549 cells were infected or not at a MOI of 0.001 for 24 hours and flow cytometry experiments were done on permeabilized cells, as previously described (Riteau B. et al. 2001; Riteau B. et al. 2001), using the SAM11 anti-PAR2 antibody (Santa-cruz biotechnology, Inc, USA). PAR2 stimulation of A549 cells was performed using 250 μM of PAR2 specific activating peptide SLIGRL-NH2 and flow cytometry experiment was performed 24 hours post-stimulation.

RANTES [6] = format: cell-based, human
IAV A/PR/8/34 [7] = test: Survival and weight loss of IAV-infected IFN-γ-deficient mice treated with peptide; conditions: 50 000 pfu/mice
Description: Six-weeks-old IFN-γ-deficient mice (background C57BL/6, n=36) obtained from the INRA “Experimental Infectiology Platform” of Tours (France) were anaesthetized once and infected intranasally with 50 000 pfu of A/PR/8/34 in the presence or absence of SLIGRL-NH2. C57BL/6J/WT mice (n=20) were used as control. Infected mice were then monitored daily for survival.

RANTES [8] = tested on: RANTES; design: species or system C57BL/6 mice; conditions: mouse, in vivo
neutrophils = tested on: neutrophils; design: species or system C57BL/6 mice; conditions: mouse, in vivo

LRGILS-NH2 [reference compound]
IFN-γ release in BAL after IAV infection (IFN-γ [1]): No significant increase
overall appearance of lungs (photographic pictures) (IAV A/PR/8/34 [2]): severely injured
survival rate (IAV A/PR/8/34 [3]): had no effect

SLIGRL-NH2
decreased infectious virus load in lungs at lower doses of IAV infection (IAV A/PR/8/34 [4]): also observed
infectious virus load in lungs (IAV A/PR/8/34 [4]): significantly decreased
IFN-γ level (IFN-γ [5]): at the limit of detection
IFN-γ release (IFN-γ [5]): induced IFN-γ release
time of peak IFN-γ release (IFN-γ [5]): 8 hours post-infection
inhibition of IAV replication in the presence of anti-IFNγ neutralizing antibody (IAV A/PR/8/34 (H1N1)): could be reversed
virus production (IAV A/PR/8/34 (H1N1)): produced less virus
effect on PAR2 synthesis (PAR2): had no effect
IFN-γ release in BAL after IAV infection (IFN-γ [1]): significant increase
release of IFN-γ in BAL (IFN-γ [1]): no effect
RANTES level (RANTES [6]): at the limit of detection
RANTES production (RANTES [6]): significantly inhibited
kinetic of weight loss after IAV infection (IAV A/PR/8/34 [7]): did not modify
protection from death (IAV A/PR/8/34 [7]): did not protect mice from death
histopathologic examination of the lungs (IAV A/PR/8/34 [2]): lack evidence of pathology
IAV-induced increase of RANTES in BAL (RANTES [8]): significantly inhibited
release of RANTES in BAL (RANTES [8]): three-fold increase
influx of neutrophils in BAL (neutrophils): significantly decreased
number of neutrophils in BAL at 48-hours compared to level at 24-hours (neutrophils): significantly increased
protection stable, inhibiting mortality until (IAV A/PR/8/34 [3]): ≥ 12 days
survival rate (IAV A/PR/8/34 [3]): protected mice from death, in a dose-dependent manner

From US9125861B2, “PAR2 agonists for use in the treatment or prevention of influenza virus type A infections” (Institut National de la Sante et de la Recherche Medicale …, priority 2009, dated 2015)
